Results as given in publication PMC9542247 (Angewandte Chemie (International Ed. in English), 2022).
Non-standard residues stand in square brackets, D forms with d. Residues, ends and D or L forms follow the SMILES beside them. No end group written: not given here.

System: P450Blt (CYP1251 C3)
Assay: Small scale enzymatic cyclisation
Format: biochemical, Micromonospora sp. MW-13
Conditions: for loss of P450Blt cyclisation activity compared to 1: fold reduction versus 1; for P450Blt-catalysed cyclisation, result in words: small scale enzymatic cyclisation, LCMS

| Molecule | P450Blt-catalysed cyclisation, result in words | also measured |
| --- | --- | --- |
| CSCC[C@H](N)C(=O)N[C@@H](CCCNC(=N)N)C(=O)N[C@@H](Cc1ccc(O)cc1)C(=O)N[C@@H](CC(C)C)C(=O)N[C@H](Cc1c[nH]cn1)C(=O)O [compound 17] (H-MRYL[dH]-OH) |  | conversion relative to that of 1 (relative to 1): > 10% |
| MNYLH-OH [compound 6] |  | loss of P450Blt cyclisation activity compared to 1: ≈ 2 fold |
| MRYLW [compound 24] | very effective | level of cyclisation as fraction of that of 1 (relative to 1): 2/3 |
| MRYWH-OH [compound 8] | almost totally abolished activity |  |
| MSYDH-OH [compound 7] | no further reduction in cyclisation than for 5 alone |  |
| MSYLH-OH [compound 5] |  | loss of P450Blt cyclisation activity compared to 1: ≈ 6 fold |
| RYLH-OH [compound 2] | significantly reduced activity |  |
| fMRYLH-OH [f-1] | did not affect cyclisation |  |
